The values below come from ChEMBL document CHEMBL1201862, “PubChem BioAssay data set” (2004).

Test in all cases: DTP human tumour cell line panel, 48 h
Assay [1] deals with HT-29.
The test system of assay [2] is A498.
Assay [3] concerns SW-620.
Assay [4] deals with EKVX.
Assay [5] deals with K562.
The subject of assay [6] is CCRF-CEM.
Assay [7] concerns SK-MEL-2.
Assay [8] deals with LOX IMVI.
The test system of assay [9] is SNB-19.
Assay [10] has as its system SF-539.
The subject of assay [11] is HCT-116.
In assay [12] the test system is SF-295.
Assay [13] concerns HL-60.
In assay [14] the test system is SK-MEL-5.
Assay [15] deals with OVCAR-4.
For assay [16], the system named is U-251.
In assay [17] the test system is SN12C.
For assay [18], the system named is KM-20L2.
Assay [19] deals with XF498.
In assay [20] the test system is DMS-273.

The structures appear in SMILES notation.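 Protocol summary: plate cells (96-well), add compound at 5 concentrations, incubate 48 h, interpolate endpoints linearly. Abbreviation: GI50, concentration required for 50% inhibition of growth.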 Calls of active or inactive are those of the source. No stated cut-off is given here; in the data, active = GI50 up to about 1.1 µM and inactive = higher.

A word on the GI50: it is the concentration that inhibits growth by half. On to `COc1nc2ccc(Cl)c(C(O)c3ccccc3)c2nc1OC` (stereo not drawn), for which the GI50 is 29.9 µM (inactive) in [1]; 18.6 µM (inactive) in assay [2]; 26.7 µM (inactive) in [3]; 18.2 µM (inactive) in assay [4]; 18.6 µM (inactive) in [5]; 12.6 µM (inactive) in assay [6]. Moreover, the GI50 in assay [7] is 18.5 µM (inactive); in assay [8], 17.5 µM (inactive); in assay [9], 24.9 µM (inactive); in assay [10] it was 18.3 µM (inactive); in [11], 16.2 µM (inactive); in [12], 10.5 µM (inactive). The GI50 in [13] was 19.2 µM (inactive); in assay [14], 15.6 µM (inactive); in [15], 26.6 µM (inactive); in [16], 25.3 µM (inactive); in [17], 19.7 µM (inactive).
On to `c1ccc(Sc2nc(Sc3ccccc3)nc(Sc3ccccc3)n2)cc1`, for which the GI50 in [1] was 38.9 µM (inactive); in assay [2], 29.9 µM (inactive); in [4] it was 35 µM (inactive); in [5], > 100 µM (inactive); in assay [6], 6.46 µM (inactive); in assay [7], 37.2 µM (inactive). The GI50 in [8] is > 100 µM (inactive); in assay [9], 31.8 µM (inactive); in assay [10], 31.7 µM (inactive); in assay [11] it was 60.1 µM (inactive); in assay [12], 63.7 µM (inactive); in assay [13] it was 6.38 µM (inactive). Moreover, the GI50 in [14] was > 100 µM (inactive); in [15], 55 µM (inactive); in [16] it was 19.4 µM (inactive); in assay [17], > 100 µM (inactive).
As for `COc1ccc(-c2oc3cc(O)cc(O)c3c(=O)c2OC)cc1` [ERMANIN], the GI50 is 24.7 µM (inactive) in [1]; 24.4 µM (inactive) in assay [2]; 31.2 µM (inactive) in assay [3]; 51.2 µM (inactive) in [4]; 9.79 µM (inactive) in assay [5]; 22.1 µM (inactive) in assay [6]. The GI50 in [8] was 38.2 µM (inactive); in assay [9] it was 32.7 µM (inactive); in assay [11] it was 39.9 µM (inactive); in [12], 26.6 µM (inactive); in assay [13] it was 14.1 µM (inactive); in assay [14] it was 16.7 µM (inactive). Further, the values for the GI50 in assay [15] and in assay [16] were 44.6 µM (inactive) and 18 µM (inactive), respectively.
With `COc1ccc(C2C(C#N)=C(O)NC(O)=C2C#N)cc1OC`, the GI50 in assay [1], in [18], in assay [2], in [3], in [4] and in assay [7] was > 100 µM (inactive) in each case. In addition, the GI50 in assay [9], in assay [19], in assay [10], in [11], in assay [12] and in assay [20] was > 100 µM (inactive) each time. Further, the GI50 in assay [14], in [16] and in assay [17] was > 100 µM (inactive) each time.
In the case of `c1ccc(P(CCP(c2ccccn2)c2ccccn2)c2ccccc2)cc1`, the GI50 in assay [1] is 0.0247 µM (active); in assay [2], 12.8 µM (inactive); in [3] it was 3.51 µM (inactive); in assay [4] it was 0.689 µM (active); in assay [5], 0.0783 µM (active); in assay [7], 7.67 µM (inactive). Moreover, the GI50 was 0.038 µM (active) in assay [8]; 0.498 µM (active) in [9]; 0.577 µM (active) in assay [10]; 0.0192 µM (active) in assay [11]; 0.497 µM (active) in [12]; 0.0398 µM (active) in assay [13]. In addition, the GI50 in assay [14] was 21.5 µM (inactive); in assay [15], 50.7 µM (inactive); in [16] it was 0.0578 µM (active); in assay [17] it was 14 µM (inactive).
